How the values were obtained:
Rattus norvegicus [1] = test: Reduction in total plasma cholesterol level in cholesterol-fed Sprague-Dawley rat at 0.5 mg/kg, po after 24 hrs; type: functional; parameters: scale not given: the % may be the effect or the level left
[2] = biological target: T1, Thyroid hormone receptor alpha (Homo sapiens, UniProt P10827)
T1 sequence (P10827 whole entry): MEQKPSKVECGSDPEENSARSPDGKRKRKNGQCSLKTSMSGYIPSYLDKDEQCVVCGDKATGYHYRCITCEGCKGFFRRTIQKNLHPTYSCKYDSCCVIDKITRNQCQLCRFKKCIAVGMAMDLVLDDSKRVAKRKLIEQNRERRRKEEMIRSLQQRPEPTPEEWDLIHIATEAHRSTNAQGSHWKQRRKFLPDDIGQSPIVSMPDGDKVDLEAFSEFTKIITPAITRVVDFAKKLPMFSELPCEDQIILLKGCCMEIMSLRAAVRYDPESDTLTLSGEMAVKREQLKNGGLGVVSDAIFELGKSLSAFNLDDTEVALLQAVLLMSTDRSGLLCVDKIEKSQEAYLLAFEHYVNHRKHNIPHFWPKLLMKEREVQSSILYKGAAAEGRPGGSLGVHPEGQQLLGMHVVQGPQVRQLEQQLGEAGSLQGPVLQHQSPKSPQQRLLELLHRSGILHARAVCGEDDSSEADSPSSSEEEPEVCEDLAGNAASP
Description: Displacement of [125I]3,5,3'-triiodo-L-thyronine from His-tagged human recombinant TRalpha1 by scintillation proximity assay

[3] = biological target: T2, Thyroid hormone receptor beta (Homo sapiens, UniProt P10828)
T2 sequence (P10828 whole entry): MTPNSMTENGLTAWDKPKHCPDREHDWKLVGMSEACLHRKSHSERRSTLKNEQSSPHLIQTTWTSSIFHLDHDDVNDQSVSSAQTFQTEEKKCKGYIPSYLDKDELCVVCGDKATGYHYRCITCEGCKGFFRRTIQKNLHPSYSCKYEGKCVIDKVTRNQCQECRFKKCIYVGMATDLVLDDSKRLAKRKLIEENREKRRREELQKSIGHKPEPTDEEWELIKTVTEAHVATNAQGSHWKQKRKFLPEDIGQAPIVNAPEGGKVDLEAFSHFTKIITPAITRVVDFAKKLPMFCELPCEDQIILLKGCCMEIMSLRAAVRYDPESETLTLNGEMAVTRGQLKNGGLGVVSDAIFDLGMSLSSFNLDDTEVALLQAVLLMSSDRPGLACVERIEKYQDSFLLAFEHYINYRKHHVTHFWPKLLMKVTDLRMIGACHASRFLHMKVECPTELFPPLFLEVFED
Description: Displacement of [125I]3,5,3'-triiodo-L-thyronine His-tagged human recombinant TRbeta1 by scintillation proximity assay

Rattus norvegicus [4] = test: Reduction in total plasma cholesterol level in cholesterol-fed Sprague-Dawley rat at 0.2 mg/kg, ip after 24 hrs; type: functional; parameters: scale not given: the % may be the effect or the level left; settings: route intraperitoneal
[5] = Metabolic stability in human liver S9 fraction assessed as activation rate at 100 uM after 1 hr; type: ADME, subcellular; settings: s9, 1 h
[6] = Metabolic stability in human S9 liver fraction assessed as monoacid levels at 100 uM after 1 hr; type: ADME, subcellular; settings: s9, 1 h
[7] = Metabolic stability in human S9 liver fraction assessed as prodrug remaining at 100 uM after 1 hr; type: ADME, subcellular; settings: s9, 1 h
Rattus norvegicus [8] = test: Reduction in total plasma cholesterol level in cholesterol-fed orally dosed Sprague-Dawley rat after 24 hrs; type: functional; settings: po
Rattus norvegicus [9] = test: Reduction in total plasma cholesterol level in cholesterol-fed orally dosed Sprague-Dawley rat after 24 hrs relative to control; type: functional; parameters: scale not given: the % may be the effect or the level left
Rattus norvegicus [10] = test: Agonist activity at thyroid hormone receptor in Sprague-Dawley rat assessed as liver mGPDH activity at 1 mg/kg administered through osmotic pump infusion per ug protein; type: functional
Rattus norvegicus [11] = test: Agonist activity at thyroid hormone receptor in Sprague-Dawley rat assessed as heart mGPDH activity at 1 mg/kg administered through osmotic pump infusion per ug protein; type: functional

CCOC(=O)OCOP(=O)(COc1cc(C)c(Cc2ccc(O)c(C(C)C)c2)c(C)c1)OCOC(=O)OCC
Activity (Rattus norvegicus [1]): 24%

Cc1cc(NC(=O)C(=O)O)cc(C)c1Oc1ccc(O)c(C(C)C)c1
Ki [2]: 0.51 nM
Ki [3]: 0.47 nM

CCOC(=O)[C@H](Cc1ccccc1)NP(=O)(COc1cc(C)c(Cc2ccc(O)c(C(C)C)c2)c(C)c1)N[C@@H](Cc1ccccc1)C(=O)OCC
Activity (Rattus norvegicus [1]): 0%

CC(C)c1cc(Oc2c(Br)cc(NCP(=O)(O)O)cc2Br)ccc1O
Activity (Rattus norvegicus [4]): 47.7%

Cc1cc(OC[P@@]2(=O)OCC[C@@H](c3ccc(Cl)cc3)O2)cc(C)c1Cc1ccc(O)c(C(C)C)c1
Activity (Rattus norvegicus [1]): 28%

CC(C)c1cc(Oc2c(Cl)cc(NCP(=O)(O)O)cc2Cl)ccc1O
Ki [3]: 30.5 nM

Cc1cc(OCP(=O)(OCOC(=O)C(C)(C)C)OCOC(=O)C(C)(C)C)cc(C)c1Cc1ccc(O)c(C(C)C)c1
Stability [5]: 134 pmol/min/mg
Stability [6]: 79%
Stability [7]: 11%
Activity (Rattus norvegicus [1]): 33%
ED50 (Rattus norvegicus [8]): 0.7 mg/kg
Activity (Rattus norvegicus [9]): 46%

O=C(O)Cc1cc(I)c(Oc2ccc(O)c(I)c2)c(I)c1 [TIRATRICOL]
Activity (Rattus norvegicus [10]): 7.1 U/min
Activity (Rattus norvegicus [11]): 3.68 U/min

O=P(O)(O)Cc1cc(I)c(Oc2ccc(O)c(I)c2)c(I)c1
Activity (Rattus norvegicus [10]): 5.38 U/min
Activity (Rattus norvegicus [11]): 1.74 U/min

CCc1cc(Cc2c(C)cc(OCP(=O)(O)O)cc2C)ccc1O
Activity (Rattus norvegicus [4]): 7.5%

Cc1cc(OC[P@@]2(=O)OCC[C@@H](c3ccncc3)O2)cc(C)c1Cc1ccc(O)c(C(C)C)c1 (relative stereo)
Activity (Rattus norvegicus [1]): 29%

CC(C)c1cc(Oc2c(I)cc(OCP(=O)(O)O)cc2I)ccc1O
Activity (Rattus norvegicus [4]): 44.7%

CC(C)c1cc(Oc2c(I)cc(CP(=O)(O)O)cc2I)ccc1O
Activity (Rattus norvegicus [4]): 39.4%

COc1cc(OCP(=O)(O)O)cc(OC)c1Cc1ccc(O)c(C(C)C)c1
Ki [2]: 3300 nM

Cc1cc(OCP(=O)(O)O)cc(C)c1Oc1ccc(O)c(C(C)C)c1
Ki [2]: 183 nM
Ki [3]: 25.4 nM

CCOC(=O)[C@@H](NP(=O)(COc1cc(C)c(Cc2ccc(O)c(C(C)C)c2)c(C)c1)N[C@H](C(=O)OCC)C(C)C)C(C)C
Activity (Rattus norvegicus [1]): 13%

Cc1cc(OC[P@@]2(=O)OCC[C@@H](c3cc(Cl)cc(Cl)c3)O2)cc(C)c1Cc1ccc(O)c(C(C)C)c1 (relative stereo)
Activity (Rattus norvegicus [1]): 29%

— ChEMBL document CHEMBL1152303, “Synthesis and biological evaluation of a series of liver-selective phosphonic acid thyroid hormone receptor agonists and their prodrugs” (J Med Chem, 2008)
